This note sets out measurements from EP4786454A1, “HETEROARYL DERIVATIVE AND USE THEREOF” (priority 2023, dated 2025).

Data set [1] in a line: Stability in liver microsomes (rat). The settings on record: r (SD rat liver microsomes), 0.5 mg/mL, read-out: MMS Clint. The format is in vitro ADME, Sprague-Dawley (SD) rats. Here is the method: (§1) The purpose of this study was to evaluate the phase I metabolic stability of the assay sample in liver microsomes from CD-1 mice, Sprague-Dawley (SD) rats, beagle dogs, cynomolgus monkeys, and human.
(§2) The animal and human liver microsomes used in this assay system were purchased from Xenotech, Corning, or other qualified suppliers.
(§3) Preparation of buffer: 73.21 g of potassium phosphate dibasic trihydrate and 10.78 g of potassium dihydrogen phosphate were dissolved in 4000 mL of ultrapure water. The pH of the solution was adjusted to the range of 7.40 ± 0.10 using 10.0% phosphoric acid or 1.00 M potassium hydroxide. Its final concentration was 100 mM.
(§4) Preparation of working solutions: An assay sample powder was prepared into a 10.0 mM stock solution with DMSO, and then further diluted with a suitable organic solvent. The control compounds testosterone, diclofenac, and propafenone were prepared into 10.0 mM stock solutions using DMSO, and then further diluted with a suitable organic solvent.
(§5) Preparation of liver microsome solution: Microsomes of various species were diluted with 100 mM potassium phosphate buffer to a working solution of 0.56 mg/mL. The final concentration of microsomes in the reaction system was 0.500 mg/mL. Detailed preparation procedures were described in the experimental records.
(§6) Preparation of reduced nicotinamide adenine dinucleotide phosphate (NADPH) solution: An appropriate amount of reduced nicotinamide adenine dinucleotide phosphate was dissolved in magnesium chloride solution, and the mixture was shaken to mix well. The final concentrations in the reaction system were 1.00 mM NADPH and 1.00 mM magnesium chloride, respectively. Detailed preparation procedures were described in the experimental records.
(§7) Preparation of stop solution: The stop solution was prepared using acetonitrile containing internal standards (tolbutamide and labetalol). The prepared stop solution was stored at 2.0 to 8.0 °C in a refrigerator. Detailed preparation procedures were described in the experimental records. […]
(Liver microsomes are vesicles of endoplasmic reticulum, rich in cytochrome P450 enzymes.)

Data set [2] in a line: Plasma protein binding rate, equilibrium dialysis (mouse plasma). The note with it: m (CD-1 mouse plasma), dialysis 4 hours at 37 °C, read-out: Unbound PPB%. The class given is in vitro ADME, CD-1 mice. Here is the method: The protein binding rates of the compounds in the plasma of CD-1 mice, Sprague-Dawley rats, beagle dogs, cynomolgus monkeys, and human were determined using equilibrium dialysis method.
Commercially available plasma, dual-layer dialysis membrane, and equilibrium dialysis device.
The dual-layer dialysis membrane was soaked in ultrapure water for about 1 hour, removed and then divided into two parts. It was then soaked in an ethanol:water (20:80, v:v) solution for 20 minutes or placed at 2 to 8 °C, and it was valid for 1 month. Before starting the assay, the dialysis membrane was rinsed twice with ultrapure water and then soaked in ultrapure water for another 20 minutes for later use.
On the day of assay, the frozen plasma of CD-1 mice, Sprague-Dawley rats, beagle dogs, cynomolgus monkeys, and human was thawed in running cold tap water. After the plasma was completely thawed, the plasma was centrifuged at 3220×g for 5 minutes, and the suspended substances and precipitates in it were removed. The pH of the plasma was determined. The plasma with a pH in the range of 7.4 ± 0.1 was directly used, or the plasma with a pH in the range of 7.4 ± 0.1 after an adjustment with 1% phosphoric acid or 1M sodium hydroxide was used.
Preparation process of plasma samples: 597 µL of blank plasma from each of the above five species was taken, respectively. 3 µL of a compound or warfarin working solution was added, and the mixture was mixed thoroughly to give a plasma sample with a compound concentration of 2 µM and a warfarin concentration of 2 µM (n=1). The concentration of the organic phase DMSO was 0.5%. The sample was thoroughly mixed before proceeding to the next step.
Preparation process of T0 samples: 50 µL of a plasma sample containing the compound and warfarin was transferred to a sample receiving plate (n=3), and 50 µL of blank PBS was immediately added. Then, 500 µL of stop solution was added to the T0 sample of the compound and warfarin, and the mixture was stored at 2 to 8 °C, waiting to be processed later together with other dialysis-processed samples.
Dialysis process of plasma samples: 100 µL of a compound (2 µM) and warfarin (2 µM) plasma sample was added to the donor of each dialysis well (n=3), and 100 µL of blank PBS was added to the corresponding receiver of the dialysis well. The dialysis plate was placed in a 5% CO2 incubator, and incubated at 37 °C with shaking at approximately 100 rpm for 4 hours.
After the dialysis was completed, 50 µL of dialysis-processed PBS sample and dialysis-processed plasma sample (n=3) were transferred to a new 96-well plate (sample receiving plate). The corresponding volume of the corresponding blank plasma or PBS was added to the sample to make the final volume of each sample well 100 µL, with a plasma to PBS volume ratio of 1:1. All the samples were analyzed by LC-MS/MS after protein precipitation.
The formulas for calculating the unbound fraction (%Unbound), bound fraction (%Bound) and recovery fraction (%Recovery) of a compound are as follows: %Unbound = 100 ×F / T %Bound = 100 - %Unbound %Recovery = 100 ×(F + T)/ T0 wherein F is the concentration of the compound at the receiver of dialysis; T is the concentration of the compound at the supply end of dialysis; and T0 is the concentration of the compound in the plasma at time zero.
On the technique in general: Equilibrium dialysis compares concentrations on both sides of a semipermeable membrane.

The nature of data set [3]: Stability in liver microsomes (dog). The settings on record: d (beagle dog liver microsomes), 0.5 mg/mL, read-out: MMS Clint. The format is in vitro ADME, beagle dogs. Here is the method: as §1, §2, §3, §4, §5, §6, §7

As to `CC(C)(C)CC(=O)Nc1nc2c(F)cc(C#N)cn2c1-c1ccc(OC(F)(F)F)cc1` [Compound 1], the CLint scaled at 1 µM in data set [1] amounted to 193 mL/min/kg; in data set [3] it was 16 mL/min/kg. Also, the fraction unbound at 4 h, 2 µM in data set [2] was 0.047.

For `CC(C)(C)CC(=O)Nc1nc2c(F)cc(C#N)cn2c1C1=CCCC1` [Compound 3], the CLint scaled at 1 µM in data set [1] was 123 mL/min/kg; in data set [3], < 14 mL/min/kg. The fraction unbound at 4 h, 2 µM in data set [2] was 0.087.

Turning to `CC(C)(C)CC(=O)Nc1nc2c(F)cc(C#N)cn2c1C12CC(C1)C2` [Compound 5], the CLint scaled at 1 µM in data set [1] is < 17 mL/min/kg; in data set [3] it was < 13.8 mL/min/kg. Further, the fraction unbound at 4 h, 2 µM in data set [2] was 0.141.
